Source: the supplement of paper PMC10307832

Key:
Test in all cases: relative viability (nuclei count vs DMSO), 5 days (fraction); higher = more cells survive
[1] = compound: Cn1cc(-c2cnn3c(N)c(Br)c([C@@H]4CCCNC4)nc23)cn1
How it was run: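 Five library-drug doses, separated by factors of √10, were pinned into 1536-well plates holding lung cancer cell lines after an overnight stay at 37 °C. Cells were fixed, permeabilised and Hoechst-stained in one step after 5 days without medium change, then imaged at 4×. Viability compares treated-well with vehicle-well nuclei, counted in MetaXpress, as a median across plates. Passing plates had control CV below 25% and at least one doubling.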

[2] = compound: Cn1cc(-c2cnn3c(N)c(Br)c([C@@H]4CCCNC4)nc23)cn1 + N=C(N)NC(=N)NCCc1ccccc1 [Phenformin] (partner 250 µM)
How it was run: (§1)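 Dosing by pin tool came one day after lung cancer cell lines were seeded in 1536-well plates, using either one drug or a fixed anchor-drug dose plus five library-drug doses (not always all listed) in √10 steps. After 5 days, nuclei were counted on 4× images. Relative viability is treated-well nuclei count divided by vehicle-well nuclei count, and values are medians of duplicate plates.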

[3] = compound: Cn1cc(-c2cnn3c(N)c(Br)c([C@@H]4CCCNC4)nc23)cn1 + COc1cccc2cc(-c3nc([C@H]4CC[C@H](C(=O)O)CC4)n4ncnc(N)c34)[nH]c12 [OSI-027] (partner 0.5 µM)
How it was run: as §1

[4] = compound: Cn1cc(-c2cnn3c(N)c(Br)c([C@@H]4CCCNC4)nc23)cn1 + CC(=O)Nc1cccc(-n2c(=O)n(C3CC3)c(=O)c3c(Nc4ccc(I)cc4F)n(C)c(=O)c(C)c32)c1 [Trametinib] (partner 0.02 µM)
How it was run: as §1

Cell Line	relative viability ([1]; 0.05 µM)	relative viability ([1]; 0.1581 µM)	relative viability ([1]; 0.5 µM)	relative viability ([1]; 1.581 µM)	relative viability ([1]; 5 µM)	relative viability ([2]; first compound 0.05 µM)	relative viability ([2]; first compound 0.1581 µM)	relative viability ([2]; first compound 0.5 µM)	relative viability ([2]; first compound 1.581 µM)	relative viability ([2]; first compound 5 µM)	relative viability ([3]; first compound 0.05 µM)	relative viability ([3]; first compound 0.5 µM)	relative viability ([3]; first compound 1.581 µM)	relative viability ([3]; first compound 5 µM)	relative viability ([4]; first compound 0.05 µM)	relative viability ([4]; first compound 0.1581 µM)	relative viability ([4]; first compound 0.5 µM)	relative viability ([4]; first compound 1.581 µM)	relative viability ([4]; first compound 5 µM)	relative viability ([3]; first compound 0.1581 µM)
201T	0.972	1.01	0.996	0.86	0.746	0.452	0.517	0.429	0.366	0.405	0.777	0.656	0.532	0.241	0.692	0.751	0.687	0.722	0.7	–
A549	1.01	1.07	0.946	0.847	0.813	0.158	0.907	0.215	0.149	0.115	–	–	–	–	–	–	–	–	–	–
A-427	1.04	0.919	1.01	0.784	0.607	0.348	0.324	0.288	0.284	0.269	0.495	0.453	0.357	0.31	0.756	0.675	0.704	0.651	0.341	0.474
ABC-1	0.938	0.988	0.758	0.566	0.455	0.252	0.236	0.254	0.218	0.192	0.518	0.382	0.39	0.264	–	–	–	–	–	0.58
BEN	1.05	0.902	0.904	0.972	0.834	0.249	0.213	0.288	0.268	0.284	0.481	0.251	0.572	0.295	1.19	1.01	0.907	0.966	0.881	0.288
CAL-12T	1.03	1.06	1.08	0.68	0.265	0.478	0.585	0.537	0.377	0.155	0.554	0.682	0.266	0.121	0.288	0.346	0.315	0.33	0.278	0.841
COR-L23	1.08	1.26	1.11	0.803	0.45	0.479	0.474	0.443	0.298	0.191	0.813	0.671	0.393	0.255	0.694	0.671	0.582	0.437	0.232	0.927
COR-L 105	0.85	0.85	0.843	0.705	0.656	0.504	0.508	0.452	0.379	0.301	0.632	0.688	0.587	0.487	0.424	0.436	0.414	0.417	0.422	0.818
Calu-6	1.06	0.905	0.828	0.438	0.219	–	–	–	–	–	–	–	–	–	–	–	–	–	–	–
ChaGo-K-1	0.99	1.08	1.09	0.89	0.997	0.467	0.523	0.509	0.46	0.503	0.557	0.61	0.535	0.642	0.926	0.925	0.874	0.806	0.972	0.638
EKVX	1.04	1.01	1.07	0.862	0.929	0.223	0.254	0.257	0.245	0.194	0.676	0.733	0.71	0.633	0.445	0.317	0.413	0.377	0.409	0.75
EMC-BAC-2	0.917	1.03	0.976	0.949	0.827	0.515	0.509	0.505	0.405	0.461	0.368	0.408	0.37	0.355	0.885	0.664	0.927	0.878	0.515	0.367
EPLC-272H	1	0.974	0.896	0.628	0.379	0.288	0.275	0.321	0.292	0.188	0.256	0.359	0.224	0.166	0.276	0.273	0.286	0.272	0.218	0.309
H3255	1.02	0.935	1.03	0.974	0.57	0.372	0.353	0.345	0.385	0.322	0.744	0.601	0.584	0.481	0.694	0.534	0.668	0.633	0.405	0.523
HARA	0.975	1.03	1.31	0.761	0.301	0.468	0.518	0.448	0.36	0.136	0.469	0.685	0.408	0.149	0.762	0.474	0.482	0.532	0.344	0.606
HCC-15	1.07	1.08	1.06	0.928	0.936	0.494	0.524	0.429	0.406	0.349	0.781	0.682	0.566	0.533	0.38	0.421	0.379	0.393	0.409	0.739
HCC-44	0.918	1.06	1.01	0.994	0.953	0.155	0.193	0.179	0.188	0.172	–	0.683	0.414	0.434	0.998	1.09	1.12	1.08	1.13	0.604
